The data set deals with CCRIS mutagenicity, Ames/micronucleus/aberration tests. Description: CCRIS mutagenicity studies.
The mark [1] stands for this setting: Test System: AMES SALMONELLA TYPHIMURIUM, Strain/Indicator: TA1535, Metabolic Activation: NONE, Method: PREINCUBATION

Calls of active or inactive are those of the source. How the calls were made is not given here.

Turning to `Oc1cc(Cl)c(Cl)c(Cl)c1Cl`, the mutagenic call reads like this: (End Point: IN VITRO CHROMOSOMAL ABERRATIONS, Test System: CHINESE HAMSTER LUNG CELLS (CHL), Metabolic Activation: NONE) “inactive; negative”; (End Point: IN VITRO CHROMOSOMAL ABERRATIONS, Test System: CHINESE HAMSTER LUNG CELLS (CHL), Metabolic Activation: RAT, LIVER, S-9, KC-400) “active; positive (structural changes)”; (End Point: IN VITRO CHROMOSOMAL ABERRATIONS, Test System: CHINESE HAMSTER OVARY CELLS (CHO), Metabolic Activation: NONE) “inactive; negative”; (End Point: IN VITRO CHROMOSOMAL ABERRATIONS, Test System: CHINESE HAMSTER OVARY CELLS (CHO), Metabolic Activation: RAT, LIVER, S-9, AROCLOR 1254) “active; positive (structural changes)”; (Test System: AMES SALMONELLA TYPHIMURIUM, Strain/Indicator: TA97, Metabolic Activation: HAMSTER, LIVER, S-9, AROCLOR 1254 (10 OR 30%), Method: PREINCUBATION) “inactive; negative”; (Test System: AMES SALMONELLA TYPHIMURIUM, Strain/Indicator: TA97, Metabolic Activation: NONE, Method: PREINCUBATION) “inactive; negative”. In addition, the mutagenic call (Test System: AMES SALMONELLA TYPHIMURIUM, Strain/Indicator: TA97, Metabolic Activation: RAT, LIVER, S-9, AROCLOR 1254 (10 OR 30%), Method: PREINCUBATION) is “inactive; negative”; the mutagenic call (Test System: AMES SALMONELLA TYPHIMURIUM, Strain/Indicator: TA98, Metabolic Activation: HAMSTER, LIVER, S-9, AROCLOR 1254 (10 OR 30%), Method: PREINCUBATION) is “inactive; negative”; the mutagenic call (Test System: AMES SALMONELLA TYPHIMURIUM, Strain/Indicator: TA98, Metabolic Activation: NONE, Method: PREINCUBATION) was “inactive; negative”; the mutagenic call (Test System: AMES SALMONELLA TYPHIMURIUM, Strain/Indicator: TA98, Metabolic Activation: RAT, LIVER, S-9, AROCLOR 1254 (10 OR 30%), Method: PREINCUBATION) was “inactive; negative”; the mutagenic call (Test System: AMES SALMONELLA TYPHIMURIUM, Strain/Indicator: TA100, Metabolic Activation: HAMSTER, LIVER, S-9, AROCLOR 1254 (10 OR 30%), Method: PREINCUBATION) was “inactive; negative”; the mutagenic call (Test System: AMES SALMONELLA TYPHIMURIUM, Strain/Indicator: TA100, Metabolic Activation: NONE, Method: PREINCUBATION) was “inactive; negative”. For the same molecule, the mutagenic call (Test System: AMES SALMONELLA TYPHIMURIUM, Strain/Indicator: TA100, Metabolic Activation: RAT, LIVER, S-9, AROCLOR 1254 (10 OR 30%), Method: PREINCUBATION) is “inactive; negative”; the mutagenic call (Test System: AMES SALMONELLA TYPHIMURIUM, Strain/Indicator: TA1535, Metabolic Activation: HAMSTER, LIVER, S-9, AROCLOR 1254 (10 OR 30%), Method: PREINCUBATION) was “inactive; negative”; the mutagenic call under setting [1] was “inactive; negative”; the mutagenic call (Test System: AMES SALMONELLA TYPHIMURIUM, Strain/Indicator: TA1535, Metabolic Activation: RAT, LIVER, S-9, AROCLOR 1254 (10 OR 30%), Method: PREINCUBATION) is “inactive; negative”.

With `CC(=O)NNc1ccc(CO)cc1`, the mutagenic call is, setting by setting: (Test System: AMES SALMONELLA TYPHIMURIUM, Strain/Indicator: TA104, Metabolic Activation: MUSHROOM TYROSINASE, Method: PREINCUBATION) “active; positive”; (Test System: AMES SALMONELLA TYPHIMURIUM, Strain/Indicator: TA104, Metabolic Activation: NONE, Method: PREINCUBATION) “inactive; negative”; (Test System: AMES SALMONELLA TYPHIMURIUM, Strain/Indicator: TA104, Metabolic Activation: RAT, LIVER, CYTOSOL AND MICROSOMES, AROCLOR 1254, NADPH, Method: PREINCUBATION) “active; positive”; (Test System: AMES SALMONELLA TYPHIMURIUM, Strain/Indicator: TA104, Metabolic Activation: RAT, LIVER, CYTOSOL AND MICROSOMES, AROCLOR 1254, Method: PREINCUBATION) “inactive; negative”; (Test System: AMES SALMONELLA TYPHIMURIUM, Strain/Indicator: TA104, Metabolic Activation: RAT, LIVER, CYTOSOL, AROCLOR 1254, Method: PREINCUBATION) “inactive; negative”; (Test System: AMES SALMONELLA TYPHIMURIUM, Strain/Indicator: TA104, Metabolic Activation: RAT, LIVER, MICROSOMES, AROCLOR 1254, NADPH, Method: PREINCUBATION) “inactive; negative”. Further, the mutagenic call reads like this: under setting [1], “inactive; negative”; (Test System: AMES SALMONELLA TYPHIMURIUM, Strain/Indicator: TA1535, Metabolic Activation: RAT, LIVER, S-9, AROCLOR 1254, Method: PREINCUBATION) “inactive; negative”; (Test System: AMES SALMONELLA TYPHIMURIUM, Strain/Indicator: TA1537, Metabolic Activation: NONE, Method: PREINCUBATION) “active; positive”; (Test System: AMES SALMONELLA TYPHIMURIUM, Strain/Indicator: TA1537, Metabolic Activation: RAT, LIVER, S-9, AROCLOR 1254, Method: PREINCUBATION) “inactive; negative”.

With `CN1CCN(C2=Nc3cc(Cl)ccc3Nc3ccccc32)CC1`, the mutagenic call is, setting by setting: (Test System: AMES SALMONELLA TYPHIMURIUM, Strain/Indicator: TA98, Metabolic Activation: NONE, Method: STANDARD PLATE) “inactive; negative”; (Test System: AMES SALMONELLA TYPHIMURIUM, Strain/Indicator: TA98, Metabolic Activation: RAT, LIVER, S-9, AROCLOR 1254, Method: STANDARD PLATE) “inactive; negative”; (Test System: AMES SALMONELLA TYPHIMURIUM, Strain/Indicator: TA100, Metabolic Activation: NONE, Method: STANDARD PLATE) “inactive; negative”; (Test System: AMES SALMONELLA TYPHIMURIUM, Strain/Indicator: TA100, Metabolic Activation: RAT, LIVER, S-9, AROCLOR 1254, Method: STANDARD PLATE) “inactive; negative”; (Test System: AMES SALMONELLA TYPHIMURIUM, Strain/Indicator: TA1535, Metabolic Activation: NONE, Method: STANDARD PLATE) “inactive; negative”; (Test System: AMES SALMONELLA TYPHIMURIUM, Strain/Indicator: TA1535, Metabolic Activation: RAT, LIVER, S-9, AROCLOR 1254, Method: STANDARD PLATE) “inactive; negative”. Besides, the mutagenic call reads like this: (Test System: AMES SALMONELLA TYPHIMURIUM, Strain/Indicator: TA1537, Metabolic Activation: NONE, Method: STANDARD PLATE) “inactive; negative”; (Test System: AMES SALMONELLA TYPHIMURIUM, Strain/Indicator: TA1537, Metabolic Activation: RAT, LIVER, S-9, AROCLOR 1254, Method: STANDARD PLATE) “inactive; negative”.

These data come from PubChem BioAssay AID1259407 (Chemical Carcinogenesis Research Information System (CCRIS), 2018).
